TGI and GI50 data for twelve molecules are collected here from PubChem BioAssay (NCI).

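Where inhibition never reached the appropriate level, the endpoint shown equals the highest concentration tested. Otherwise, values were interpolated linearly from a five-concentration, 48-hour dose response in 96-well plates. At the GI50, growth is halved. TGI denotes the concentration required for complete inhibition of growth.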

Among the test systems are ACHN renal; CCRF-CEM leukemia; EKVX NSCLC; HOP-62 NSCLC; K-562 leukemia; NCI-H460 lung; OVCAR-4 ovarian; SF-539 CNS; SW-620 colon; RPMI-8226 leukemia.
Experiment in all cases: NCI-60 cell line screen, 48 h

Regarding `CC(C)(C)c1ccc2c(c1)S(=O)(=O)Nc1ccccc1NS(=O)(=O)c1cc(C(C)(C)C)ccc1OCCOCCOCCO2`, the TGI with ACHN renal, with CCRF-CEM leukemia, in the test on EKVX NSCLC, in the test with HOP-62 NSCLC, with K-562 leukemia and in the test with NCI-H460 lung was over 100 µM throughout. Also, the figures for the TGI in the test with OVCAR-4 ovarian, in the test on SF-539 CNS and with SW-620 colon were 48 µM, over 100 µM and over 100 µM, respectively.

In the case of `COC1(OC)C2(Cl)C(Cl)=C(Cl)C1(Cl)C1C=CC=CC12` (stereo not drawn), the TGI with ACHN renal, with EKVX NSCLC, in the test with HOP-62 NSCLC, with K-562 leukemia, with NCI-H460 lung and in the test with OVCAR-4 ovarian was over 100 µM each time. Further, the TGI in the test with RPMI-8226 leukemia, with SF-539 CNS and with SW-620 colon was over 100 µM throughout.

For `NC(N)=N/N=C(\c1nc2ccc([N+](=O)[O-])cc2[nH]c1=O)C(O)c1ccc([N+](=O)[O-])cc1` (stereo not drawn), the TGI with ACHN renal, with CCRF-CEM leukemia, with HOP-62 NSCLC, with K-562 leukemia, with NCI-H460 lung and in the test on OVCAR-4 ovarian was over 100 µM each time. In addition, the TGI with RPMI-8226 leukemia, in the test with SF-539 CNS and with SW-620 colon was over 100 µM each time.

Turning to `COC(=O)/C(=N\Nc1nnc(C)n1N)C(C#N)c1ccc(Cl)cc1` (stereo not drawn), the TGI in the test with ACHN renal, in the test with EKVX NSCLC, in the test with HOP-62 NSCLC, in the test with NCI-H460 lung, in the test on OVCAR-4 ovarian and in the test on RPMI-8226 leukemia was over 100 µM throughout. The TGI with SF-539 CNS and in the test with SW-620 colon was over 100 µM in each case.

For the molecule `CCCCC(O)(c1ccc(Cl)cc1)C(CN1CCOCC1)c1ccc(Cl)cc1` (stereo not drawn), the GI50 with ACHN renal is 14.4 µM; in the test with CCRF-CEM leukemia, 14.3 µM; with HOP-62 NSCLC, 16.3 µM; with K-562 leukemia, 12.2 µM; in the test on NCI-H460 lung, 10.7 µM; with OVCAR-4 ovarian, 13.6 µM. The values for the GI50 in the test on RPMI-8226 leukemia, in the test with SF-539 CNS and in the test on SW-620 colon were 10.4 µM, 17 µM and 11.5 µM, respectively. For the same molecule, the TGI with ACHN renal turned out to be 28.5 µM; in the test on CCRF-CEM leukemia it was 36.2 µM; in the test with HOP-62 NSCLC, 34.5 µM; in the test on K-562 leukemia, 41.1 µM; in the test with NCI-H460 lung it was 25.7 µM; in the test with OVCAR-4 ovarian, 29 µM. The TGI in the test with RPMI-8226 leukemia is 36.2 µM; in the test with SF-539 CNS, 36.6 µM; in the test on SW-620 colon, 25.3 µM.

On to `O=C(Cc1ccccc1)NN1C(=O)C(Cl)C1c1cc(Br)ccc1O` (stereo not drawn), for which the TGI with ACHN renal was over 100 µM; in the test with CCRF-CEM leukemia it was over 100 µM; in the test with EKVX NSCLC, 23.9 µM; in the test with HOP-62 NSCLC, 52.9 µM; with K-562 leukemia, 42.7 µM; in the test with NCI-H460 lung, over 100 µM. The TGI in the test on OVCAR-4 ovarian, in the test with RPMI-8226 leukemia and with SW-620 colon was over 100 µM each time.

Regarding `O=C1CCN2C(=O)CCN12`, the TGI in the test on ACHN renal, with CCRF-CEM leukemia, with EKVX NSCLC, in the test on HOP-62 NSCLC, with K-562 leukemia and in the test on NCI-H460 lung was over 100 µM throughout. In addition, the TGI in the test on OVCAR-4 ovarian, in the test with RPMI-8226 leukemia and in the test on SW-620 colon was over 100 µM throughout.

Regarding `CC(C)(C)c1cc(Br)c(O)c(CN(Cc2cc(C(C)(C)C)cc(Br)c2O)C2CCCCC2)c1`, the TGI came out at 28.1 µM in the test on ACHN renal; 26.6 µM with CCRF-CEM leukemia; 27.9 µM with EKVX NSCLC; 28.5 µM in the test on HOP-62 NSCLC; 28.3 µM in the test on K-562 leukemia; 22.3 µM with OVCAR-4 ovarian. Besides, the TGI in the test on RPMI-8226 leukemia was found to be 27.9 µM; in the test with SW-620 colon it was 25.8 µM.

Turning to `c1cc(CNC23CC4CC(CC(C4)C2)C3)cc(C[N+](Cc2cccc(CNC34CC5CC(CC(C5)C3)C4)c2)(Cc2cccc(CNC34CC5CC(CC(C5)C3)C4)c2)Cc2cccc(CNC34CC5CC(CC(C5)C3)C4)c2)c1` (stereo not drawn), the GI50 with ACHN renal was 3.65 µM; in the test on CCRF-CEM leukemia, 6.1 µM; in the test on HOP-62 NSCLC, 11.1 µM; with K-562 leukemia, 6.1 µM; with NCI-H460 lung, 4.97 µM; in the test on OVCAR-4 ovarian it was 4.85 µM. Besides, the GI50 in the test on RPMI-8226 leukemia is 5.51 µM; in the test on SF-539 CNS, 4.23 µM; with SW-620 colon, 5.23 µM. Moreover, the TGI amounted to 8.92 µM with ACHN renal; 209 µM with CCRF-CEM leukemia; 42.1 µM with HOP-62 NSCLC; 151 µM in the test with K-562 leukemia; 11.3 µM with NCI-H460 lung; 22.8 µM in the test on OVCAR-4 ovarian. Also, the TGI was found to be 16.7 µM with RPMI-8226 leukemia, 10.3 µM in the test with SF-539 CNS and 16.5 µM in the test with SW-620 colon.

For `Cc1cc(C(=O)Nc2ncc(Cc3cccc(C(F)(F)F)c3)s2)c2ccccc2n1`, the GI50 in the test on ACHN renal was 0.339 µM; in the test on CCRF-CEM leukemia, 2.54 µM; in the test on EKVX NSCLC it was 2.9 µM; in the test with HOP-62 NSCLC it was 1.46 µM; in the test on K-562 leukemia, 0.0458 µM; in the test with NCI-H460 lung, 1.33 µM. For the same molecule, the GI50 with OVCAR-4 ovarian was 4.02 µM; in the test with RPMI-8226 leukemia, 2.41 µM; in the test with SW-620 colon, 1.21 µM. The TGI in the test on ACHN renal, with CCRF-CEM leukemia, in the test with EKVX NSCLC, in the test on HOP-62 NSCLC, in the test with K-562 leukemia and in the test with NCI-H460 lung was over 100 µM throughout. Also, the TGI with OVCAR-4 ovarian, with RPMI-8226 leukemia and in the test on SW-620 colon was over 100 µM each time.

`c1ccc(CNn2nnc3ccccc32)cc1`: the TGI in the test with ACHN renal, in the test with CCRF-CEM leukemia, in the test on EKVX NSCLC, in the test with HOP-62 NSCLC, in the test on K-562 leukemia and with NCI-H460 lung was over 100 µM in each case. The TGI in the test with OVCAR-4 ovarian, in the test on RPMI-8226 leukemia and in the test on SW-620 colon was over 100 µM each time.

For the molecule `Nn1c(=O)n(Cc2ccccc2)n(-c2ccccc2)c1=O`, the TGI in the test on ACHN renal, in the test on CCRF-CEM leukemia, in the test on HOP-62 NSCLC, with K-562 leukemia, in the test with NCI-H460 lung and with OVCAR-4 ovarian was over 100 µM in each case. Moreover, the TGI with RPMI-8226 leukemia, with SF-539 CNS and in the test with SW-620 colon was over 100 µM each time.
